From ChEMBL document CHEMBL1157539, “Thousands of chemical starting points for antimalarial lead identification” (Nature, 2010)

Tested on: Plasmodium falciparum
Test: GSK_TCMDC: Inhibition of Plasmodium falciparum 3D7 in whole erythrocytes, using parasite LDH activity as an index of growth.
Format: functional, organism-based
Conditions: Plasmodium falciparum, 3D7

Row | SMILES | XC50
1 | CCN(CC)CCN(Cc1ccc(-c2ccc(C(F)(F)F)cc2)cc1)C(=O)Cn1c(CCc2cccc(F)c2F)nc(=O)c2cccnc21 | 728 nM
2 | CCN(CC)CCN(Cc1ccc(-c2ccc(C(F)(F)F)cc2)cc1)C(=O)Cn1c(CCc2cccc(C#N)c2)nc(=O)c2ccccc21 | 768 nM
3 | CCN(CC)CCN(Cc1ccc(-c2ccc(C(F)(F)F)cc2)cc1)C(=O)Cn1cc(Cc2cnn(C)c2)c(=O)n2nc(-c3ccccc3)cc12 | 730 nM
4 | CCCCCOc1ccc(/N=C2\C=C(O)C(=O)c3ccccc32)cc1 | 243 nM
5 | COc1cccc2c(Nc3ccccc3C)nc(Nc3ccccc3C)nc12 | 679 nM
6 | OC(CNCc1ccccc1OCc1ccccc1)c1cc(C(F)(F)F)cc(C(F)(F)F)c1 (stereo not drawn) | 134 nM
7 | CCc1cc2c3c(N)nc(N)nc3ccc2n1C(C)(C)C | 12.7 nM
8 | CCc1cn2c3c(cc(C(=O)N[C@@H](Cc4ccccc4)[C@H](O)CNCc4ccccc4)cc13)N(C)S(=O)(=O)CC2 | 664 nM
9 | CN1CCC(NCc2ccc(-c3ccc(Cl)cc3)cc2)CC1 | 750 nM
10 | CCCc1cc(C)ccc1OCCCON1C(N)=NC(N)=NC1(C)C | 3.2 nM
11 | OCCC1CCN(Cc2ccc(-c3ccc(-c4nc5ccccc5[nH]4)cc3)cc2)CC1 | 768 nM
12 | CC(C)c1cc(Oc2c(I)cc(CCNCc3ccccc3)cc2I)ccc1O | 536 nM
13 | CCCC(C)Nc1nc(C)cc(N[C@@H](Cc2ccccc2)C(=O)NCc2ccc(C)cc2)n1 (stereo partly drawn) | 1120 nM
14 | COc1ccc2nccc([C@@H](O)CN3CCC(NCc4nc5cc(F)cc(F)c5[nH]4)CC3)c2c1 | 573 nM
15 | CN1CCN(CCCNCc2ccccc2-c2cccc(CNCc3ccc4c(c3)OCO4)c2)CC1 | 793 nM
16 | CCN1CCN(Cc2c(O)ccc3c(=O)c(Oc4cc(C)cc(C)c4)c(C(F)(F)F)oc23)CC1 | 773 nM
17 | CC[C@H](C)[C@H](NC(=O)[C@H](CC1CCCCC1)[C@H](CC)N(O)C=O)C(=O)Nc1ccccn1 | 176 nM
18 | CCCCOC(=O)C1=C(C)NC2=C(C(=O)CC(c3ccc(OC)c(OC)c3)C2)C1c1ccc(O)cc1 (stereo not drawn) | 834 nM
19 | CCCNC(=O)c1cncc(-c2ccc(CNCCCc3ccccc3)cc2)c1 | 688 nM
20 | COc1cc(C(=O)NC2CCN(Cc3ccccc3)CC2)ccc1-c1cc2cc(Cl)c(Cl)cc2[nH]1 | 227 nM
21 | COc1ccc(-c2cc(-c3nc4cc(CN)ccc4[nH]3)c(=O)n(C)c2)cc1OC | 1400 nM
22 | O=C(NCc1ccc(C(=O)N2CCC(N3CCCCC3)CC2)cc1)c1cc(-c2cccc(C(F)(F)F)c2)ccc1O | 817 nM
23 | COc1ccc2nccc([C@@H](O)CN3CCC(NCc4cc5ccccc5s4)CC3)c2c1 | 347 nM
24 | CC(C)Cn1cc(C2CCN(CCN3CCC(CNC(=O)c4ccc(NC(=O)c5ccc(Cl)cc5)cc4)CC3)CC2)c2ccccc21 | 251 nM
25 | O=C(Nc1ccc(-c2ccc(-c3nc4ccccc4[nH]3)s2)cc1)c1ccncc1 | 789 nM

Row | SMILES | XC50
26 | NC(=O)c1cccc(CNCc2ccc(-c3cccc(-c4nc5ccccc5[nH]4)c3)cc2)c1 | 592 nM
27 | COc1ccc2nc(C)cc(Nc3ccc(Cl)cc3)c2c1 | 946 nM
28 | O=S(=O)(c1ccccc1)C1CC1 | 724 nM
29 | Clc1ccc2c(NCc3ccccc3)ccnc2c1 | 339 nM
30 | CC(C)(C)c1ccc(CNC(=O)c2ccc(CNC3CCC(N)CC3)s2)cc1 (stereo not drawn) | 531 nM
31 | O=C(Nc1cccc(OCc2ccccc2)c1)c1ccc(CN2CCC(Cc3ccccc3)CC2)cc1 | 850 nM
32 | COc1cc(OC)cc(C(=O)Nc2cccc(-c3cn4ccc(C)cc4n3)c2)c1 | 994 nM
33 | COc1cccc2c(NN=Cc3cccc(Cl)c3)cc(C)nc12 | 709 nM
34 | Cc1ccc2[nH]c3c(NCCN(C)C)ncnc3c2c1 | 838 nM
35 | O=C(NCCCCN1CCC(O)(c2ccc3c(c2)OCO3)CC1)c1ccc(NC(=O)c2ccc(Cl)cc2)cc1 | 1180 nM
36 | CCOc1cc(CC)ccc1C1CCN(CCN2CCC(NC(=O)c3ccc(-c4ccc(C(C)=O)cc4)cc3)CC2)CC1 | 226 nM
37 | COc1cc(C(=O)N2CCOC(CCN3CCC(c4ccc(Cl)cc4)CC3)(c3ccc(Cl)c(Cl)c3)C2)cc(OC)c1OC (stereo not drawn) | 179 nM
38 | Nc1nccc2ccc(-c3ccc(OCc4ccccc4)cc3)cc12 | 222 nM
39 | COc1ccc2nccc([C@@H](O)CN3CCC(NCc4ccc(OC)c(NC(C)=O)c4)CC3)c2c1 | 835 nM
40 | Nc1ccc(-c2ccc(NC(=O)Nc3ccccc3)cc2)cn1 | 920 nM
41 | CN1CCC(NCc2ccc(-c3ccc(C(F)(F)F)cc3)cc2)CC1 | 798 nM
42 | O=C(/C=C/c1ccc(Cl)c(Cl)c1)NCCCCCCN1CCCN(C(=O)Nc2ccc(F)c(F)c2)CC1 | 1240 nM
43 | Cc1ccc(NC(=O)C(C)Sc2nnc(-c3ccccc3Br)[nH]2)cc1 (stereo not drawn) | 1090 nM
44 | COc1cccc(C(=O)Nc2ccc(Oc3ccc(Cl)cc3)cc2)c1 | 956 nM
45 | Nc1ccncc1C(=O)NCCCCN1CCN(c2nsc3ccccc23)CC1 | 803 nM
46 | CNC(=O)c1ccc2[nH]cc(C3CCN(CC4CCN(C(=O)/C=C/c5ccc(Cl)c(Cl)c5)CC4)CC3)c2c1 | 1520 nM
47 | c1ccc(C(c2ccccc2)N2CCC(NCc3ccc(OCCCN4CCCCC4)cc3)CC2)cc1 | 557 nM
48 | O=C(NCC1CCN(Cc2cccc(C(F)(F)F)c2)C1)c1cc(-c2cccc(Cl)c2)cs1 (stereo not drawn) | 803 nM
49 | CCCN(CCC)CCCCC(C)Nc1c2ccc(Cl)cc2nc2ccc(OC)cc12 (stereo not drawn) | 137 nM
50 | CCCc1ccc(N2C(N)=NC(N)=NC2(C)C)cc1 | 28.4 nM

Row | SMILES | XC50
51 | CCCC(C(=O)OCCNC)(c1ccccc1)c1ccccc1 | 889 nM
52 | COc1ccc(CC2(c3ccc(F)cc3)N=C(N)N(CCCc3ccccc3)C2=O)cc1 (stereo not drawn) | 613 nM
53 | Cc1ccc2c(c1)NCC21CCN(C[C@@H](O)C2CCN(c3ccnc(Cl)c3)CC2)CC1C (stereo partly drawn) | 940 nM
54 | FC(F)(F)c1ccc2[nH]c(-c3cccc(-c4ccc(CNCc5cnn(-c6ccccc6)n5)cc4)c3)nc2c1 | 1330 nM
55 | COc1cc2c(cc1C=CC(=O)N1CCN(Cc3nc(O)c4c(C)c(C)sc4n3)CC1)OC(C)C2 (stereo not drawn) | 1020 nM
56 | CC(CN1CCN(C)CC1)C(=O)Nc1cccc(-c2cccc(-c3nc4cc(F)ccc4[nH]3)c2)c1 (stereo not drawn) | 274 nM
57 | COc1ccc(CN2CCCN(Cc3cccc(NC(=O)c4cc5ccccc5s4)c3)CC2)cc1 | 842 nM
58 | COc1ccc(CNC(=O)NC2CCN(c3ccnc(Nc4cc(OC)c(OC)c(OC)c4)n3)C2)cc1 (stereo not drawn) | 946 nM
59 | N=C(Nc1cccc(Cc2ccccc2)n1)Nc1ncccn1 | 928 nM
60 | c1cc(OCCN2CCCC2)ccc1CNC1CCN(CC2CCCCC2)CC1 | 845 nM
61 | CC[C@H](C)CNC(=O)c1ccnc(-c2ccc(CNCCCc3ccccc3)cc2)c1 | 1230 nM
62 | Nc1nccc2ccc(-c3ccc(NC(=O)Nc4cc(C(F)(F)F)ccc4F)cc3)cc12 | 86.3 nM
63 | CNCc1ccc(-c2cccc(CNCc3ccc(-c4ccccc4)cc3)c2)c(C(=O)OC)c1 | 980 nM
64 | COc1cc(NCC(O)CNc2cc(OC)c3ccccc3n2)nc2ccccc12 | 109 nM
65 | COc1c(F)cc(CC(C)NCC(O)c2cccc(Cl)c2)cc1F (stereo not drawn) | 1160 nM
66 | O=C(NCc1ccc(Cl)cc1)c1ccc(CN2CCCN(Cc3cccc(O)c3)CC2)cc1 | 1170 nM
67 | Clc1ccc2nc(-c3cccnc3)[nH]c2c1 | 38.4 nM
68 | Cc1ccc(Nc2nccc(NCC(O)c3cccc(C(F)(F)F)c3)n2)cc1 (stereo not drawn) | 677 nM
69 | CCCC(=O)Nc1ccc(OCCCN(Cc2ccccc2F)c2ccc(C#N)c(C(F)(F)F)c2)cc1 | 595 nM
70 | CC(C)CCNC(=O)C1Cc2c([nH]c3cc(Br)ccc23)C2(CCN(Cc3ccccc3)CC2)N1 (stereo not drawn) | 792 nM
71 | COc1cc2c(cc1NS(=O)(=O)c1ccc(OCc3ccc(Br)cc3)cc1)CCN(C1CCC1)CC2 | 843 nM
72 | COc1cc2nc(NCCCN3CCCCC3)nc(NCc3ccccc3)c2cc1OC | 998 nM
73 | O=S(=O)(c1ccc(OCc2ccc(Cl)cc2)cc1)c1cc2c(c(-c3ccc(F)cc3)c1)CCN(CC1CC1)CC2 | 1120 nM
74 | c1ccc(-c2ccc3c(Nc4ccc5[nH]ccc5c4)ccnc3c2)nc1 | 943 nM
75 | OCC1CCCCN1Cc1cccc(-c2cccc(-c3nc4ccccc4[nH]3)c2)c1 (stereo not drawn) | 779 nM

Row | SMILES | XC50
76 | CCCCNCc1ccc(-c2nc(CN(CCCn3ccnc3)C(=O)Nc3ccc(CC)cc3)cs2)cc1 | 830 nM
77 | CC(C)CCCC(C)(C)NC[C@@H](O)[C@H](Cc1ccccc1)NC(=O)c1cc(NC(C)C)cc(N2CCCCS2(=O)=O)c1 | 206 nM
78 | Cc1cccc2nc(-c3cccc(-c4ccc(NC(=O)c5cccnc5)cc4)c3)[nH]c12 | 594 nM
79 | CC(=O)NCCNc1nccc(N2CCc3ncnc(Nc4ccc(OCc5cccc(F)c5)c(Cl)c4)c3C2)n1 | 129 nM
80 | CCCCCCNc1cc(C)nc2ccc(OC)cc12 | 552 nM
81 | O=c1cc(NCCCNCc2cc(C(F)(F)F)ccc2F)[nH]c2ccccc12 | 829 nM
82 | Cc1cccc2nc(-c3ccc(-c4ccc(CN5CCN(c6cnccn6)CC5)cc4)s3)[nH]c12 | 750 nM
83 | O=C(Nc1cc(Cl)cc(Cl)c1)N[C@H]1CCN(CCCCCNC(=O)C2CC2c2ccc(Cl)c(Cl)c2)C1 (stereo partly drawn) | 856 nM
84 | CSc1cccc(Nc2nc3ccc(S(=O)(=O)NCC(C)C)cc3n2C(C)C(C)C)c1 (stereo not drawn) | 824 nM
85 | Fc1ccc(CN2CCN(c3ncnc4cc(-c5ccccc5)sc34)CC2)cc1 | 1020 nM
86 | CCOc1ccc(OCC)c(N2CCN(CCCCNC(=O)c3ccc(NC(=O)c4ccc(Cl)cc4)cc3)CC2)c1 | 587 nM
87 | Cc1ccc(-n2c(Sc3ncnc4sccc34)nnc2N2CCCC2)cc1 | 263 nM
88 | O=C(Nc1ccc(OC2CCN(Cc3ccccc3)CC2)c(Cl)c1)c1ccco1 | 408 nM
89 | Cc1cccc2nc(-c3cccc(-c4cccc(NC(=O)c5cccnc5)c4)c3)[nH]c12 | 228 nM
90 | CN(C)Cc1cccc(-c2cc3c(-c4cnn(C)c4)c(Cl)cnc3[nH]2)c1 | 905 nM
91 | O=C(Nc1ccc(N2CCN(Cc3ccccc3)CC2)cc1)c1cccs1 | 769 nM
92 | FC(F)(F)c1cc(C(F)(F)F)c2cc(CNCCCNc3nc4ccccc4[nH]3)[nH]c2c1 | 141 nM
93 | CN1CCC(C(=O)Nc2cccc(-c3ccc(-c4nc5cc(F)ccc5[nH]4)cc3)c2)CC1 | 706 nM
94 | Cc1cc(C=C2SC(=Nc3ccccc3)N(C3CCCC3)C2=O)c(C)n1-c1ccc(Cl)cc1 | 876 nM
95 | C[C@@]12C[C@@H](Nc3nc(NCCc4ccc(O)cc4)nc(N4CCNCC4)n3)C[C@@H](C1)c1cccc(Cl)c1O2 | 1320 nM
96 | Cc1c(F)cc(C(=O)NC2CC2)cc1-c1ccc2c(cnn2S(=O)(=O)c2ccc(C#N)cc2)c1 | 100 nM
97 | O=C(Nc1ccc(Cl)cc1C(=O)Nc1ccncc1)c1ccc(Cl)cc1Cl | 611 nM
98 | Nc1nc(N)c2c(n1)CCC(c1ccccc1)C2 (stereo not drawn) | 1010 nM
